Key:
Assay type in all cases: cell-based
Pyricularia oryzae = assay: microbe, parasite or virus in culture; conditions: 168 h, read-out: control compared to the untreated check (radial growth)
Alternaria solani = Alternaria solani (early blight of tomato/potato) in vitro test, radial growth on potato dextrose agar; conditions: 168 h, 300 ppm in potato dextrose agar, 25° C., 60% relative humidity, seven days, read-out: control compared to the untreated check (radial growth)
Rhizoctonia solani = Rhizoctonia solani (rice sheath blight/potato black scurf) in vitro test, radial growth on potato dextrose agar; conditions: 168 h, 300 ppm in potato dextrose agar, 25° C., 60% relative humidity, seven days, read-out: control compared to the untreated check (radial growth)

Row | SMILES | inhibition of growth at 300 ppm (Pyricularia oryzae) | inhibition of growth at 300 ppm (Alternaria solani) | inhibition of growth at 300 ppm (Rhizoctonia solani)
1 | CCN(C)C=Nc1cc(Cl)cc(Cc2ccc(SC)cc2)c1C [Compound 252, N′-(5-chloro-2-methyl-3-(4-(methylthio)benzyl)phenyl)-N-ethyl-N-methylformimidamide] | ≥ 70% |  | 
2 | CCN(C)C=Nc1cc(C)cc(N(C)c2ncccc2C)c1Cl [Compound 108, N′-(2-chloro-5-methyl-3-(methyl(3-methylpyridin-2-yl)amino)phenyl)-N-ethyl-N-methylformimidamide] | ≥ 70% | ≥ 70% | 
3 | CCN(C)C=Nc1cc(Cl)cc(Cc2cccc(OC(F)(F)F)c2)c1C [Compound 251, N′-(5-chloro-2-methyl-3-(3-(trifluoromethoxy)benzyl)phenyl)-N-ethyl-N-methylformimidamide] | ≥ 70% |  | 
4 | CCN(C)C=Nc1cc(F)cc(C(=O)COc2ccc(OC)cc2Cl)c1C [Compound 304, N′-(3-(2-(2-chloro-4-methoxyphenoxy)acetyl)-5-fluoro-2-methylphenyl)-N-ethyl-N-methylformimidamide] | ≥ 70% | ≥ 70% | 
5 | CCN(C)C=Nc1cc(C)cc(N(C)c2cccc(OC)c2)c1Cl [Compound 49, N′-(2-chloro-3-((3-methoxyphenyl)(methyl)amino)-5-methylphenyl)-N-ethyl-N-methylformimidamide] | ≥ 70% | ≥ 70% | 
6 | CCN(C)C=Nc1cc(Cl)cc(N(C)c2ccc(OC)c(F)c2)c1C [Compound 267, N′-(5-chloro-3-((3-fluoro-4-methoxyphenyl)(methyl)amino)-2-methylphenyl)-N-ethyl-N-methylformimidamide] | ≥ 70% |  | 
7 | CCN(C)C=Nc1cc(F)cc(Cc2ccc(SC)cc2)c1C [Compound 241, N-ethyl-N′-(5-fluoro-2-methyl-3-(4-(methylthio)benzyl)phenyl)-N-methylformimidamide] | ≥ 70% | ≥ 70% | ≥ 70%
8 | CCN(C)C=Nc1cc(F)cc(Cc2cccnc2)c1C [Compound 260, N-ethyl-N′-(5-fluoro-2-methyl-3-(pyridin-3-ylmethyl)phenyl)-N-methylformimidamide] |  | ≥ 70% | ≥ 70%
9 | CCN(C)C=Nc1cc(Cl)cc(Cc2ccc(C(F)(F)F)cc2)c1C [Compound 249, N′-(5-chloro-2-methyl-3-(4-(trifluoromethyl)benzyl)phenyl)-N-ethyl-N-methylformimidamide] | ≥ 70% |  | 
10 | CCN(C)C=Nc1cc(C)cc(N(C)c2ccc(OC)cc2)c1Cl [Compound 64, N′-(2-chloro-3-((4-methoxyphenyl)(methyl)amino)-5-methylphenyl)-N-ethyl-N-methylformimidamide] | ≥ 70% | ≥ 70% | ≥ 70%
11 | CCN(C)C=Nc1cc(C)cc(Nc2ccc3c(c2)OCCO3)c1Cl [Compound 169, N′-(2-chloro-3-((2,3-dihydrobenzo[b][1,4]dioxin-6-yl)amino)-5-methylphenyl)-N-ethyl-N-methylformimidamide] | ≥ 70% | ≥ 70% | ≥ 70%
12 | CCN(C)C=Nc1cc(C)cc(Nc2cc(F)cc(Cl)c2)c1Cl [Compound 97, N′-(2-chloro-3-((3-chloro-5-fluorophenyl)amino)-5-methylphenyl)-N-ethyl-N-methylformimidamide] | ≥ 70% |  | 
13 | CCN(C)C=Nc1cc(C)cc(Nc2ccccc2OC(F)F)c1Cl [Compound 177, N′-(2-chloro-3-((2-(difluoromethoxy)phenyl)amino)-5-methylphenyl)-N-ethyl-N-methylformimidamide] | ≥ 70% | ≥ 70% | ≥ 70%
14 | CCN(C)C=Nc1cc(OC)cc(Nc2ccccc2OC)c1C [Compound 268, N-ethyl-N′-(5-methoxy-3-((2-methoxyphenyl)amino)-2-methylphenyl)-N-methylformimidamide] |  | ≥ 70% | 
15 | CCN(C)C=Nc1cc(C)cc(Nc2ccc3ncsc3c2)c1Cl [Compound 228, N′-(3-(benzo[d]thiazol-6-ylamino)-2-chloro-5-methylphenyl)-N-ethyl-N-methylformimidamide] | ≥ 70% | ≥ 70% | 
16 | CCN(C)C=Nc1cc(Cl)cc(Nc2cccc(C)c2)c1C [Compound 154, N′-(5-chloro-2-methyl-3-(m-tolylamino)phenyl)-N-ethyl-N-methylformimidamide] | ≥ 70% | ≥ 70% | ≥ 70%
17 | CCN(C)C=Nc1cc(Cl)cc(N(C)c2ccc(OC)cc2)c1C [Compound 167, N′-(5-chloro-3-((4-methoxyphenyl)(methyl)amino)-2-methylphenyl)-N-ethyl-N-methylformimidamide] | ≥ 70% | ≥ 70% | ≥ 70%
18 | CCN(C)C=Nc1cc(OC)cc(Nc2ccc(OC)c(F)c2)c1C [Compound 269, N-ethyl-N′-(3-((3-fluoro-4-methoxyphenyl)amino)-5-methoxy-2-methylphenyl)-N-methylformimidamide] |  | ≥ 70% | 

Row | SMILES | inhibition of growth at 300 ppm (Pyricularia oryzae) | inhibition of growth at 300 ppm (Alternaria solani) | inhibition of growth at 300 ppm (Rhizoctonia solani)
19 | CCN(C)C=Nc1cc(C)cc(N(C)c2ccc(F)cc2F)c1Cl [Compound 82, N′-(2-chloro-3-((2,4-difluorophenyl)(methyl)amino)-5-methylphenyl)-N-ethyl-N-methylformimidamide] | ≥ 70% | ≥ 70% | ≥ 70%
20 | CCN(C)C=Nc1cc(C#N)cc(Cc2cccc(Br)c2)c1C [Compound 313, N′-(3-(3-bromobenzyl)-5-cyano-2-methylphenyl)-N-ethyl-N-methylformimidamide] | ≥ 70% |  | 
21 | CCN(C)C=Nc1cc(F)cc(N(C)c2ccc3ncsc3c2)c1C [Compound 238, N′-(3-(benzo[d]thiazol-6-yl(methyl)amino)-5-fluoro-2-methylphenyl)-N-ethyl-N-methylformimidamide] | ≥ 70% | ≥ 70% | 
22 | CCN(C)C=Nc1cc(C)cc(N(C)c2cc(F)cc(F)c2)c1Cl [Compound 74, N′-(2-chloro-3-((3,5-difluorophenyl)(methyl)amino)-5-methylphenyl)-N-ethyl-N-methylformimidamide] |  | ≥ 70% | 
23 | CCN(C)C=Nc1cc(Cl)cc(Cc2cccnc2)c1C [Compound 248, N′-(5-chloro-2-methyl-3-(pyridin-3-ylmethyl)phenyl)-N-ethyl-N-methylformimidamide] | ≥ 70% |  | 
24 | CCN(C)C=Nc1cc(C)cc(Nc2ncccc2C(F)(F)F)c1Cl [Compound 135, N′-(2-chloro-5-methyl-3-((3-(trifluoromethyl)pyridin-2-yl)amino)phenyl)-N-ethyl-N-methylformimidamide] | ≥ 70% |  | ≥ 70%
25 | CCN(C)C=Nc1cc(C)cc(N(C)c2ccc3ncsc3c2)c1Cl [Compound 240, N′-(3-(benzo[d]thiazol-6-yl(methyl)amino)-2-chloro-5-methylphenyl)-N-ethyl-N-methylformimidamide] | ≥ 70% | ≥ 70% | 
26 | CCN(C)C=Nc1cc(Cl)cc(Cc2cccc(C#N)c2)c1C [Compound 250, N′-(5-chloro-3-(3-cyanobenzyl)-2-methylphenyl)-N-ethyl-N-methylformimidamide] | ≥ 70% |  | 
27 | CCN(C)C=Nc1cc(OC)cc(Cc2cccc(C#N)c2)c1C [Compound 306, N′-(3-(3-cyanobenzyl)-5-methoxy-2-methylphenyl)-N-ethyl-N-methylformimidamide] | ≥ 70% | ≥ 70% | ≥ 70%
28 | CCN(C)C=Nc1cc(C)cc(N(C)c2cccc(C(F)(F)F)n2)c1Cl [Compound 290, N′-(2-chloro-5-methyl-3-(methyl(6-(trifluoromethyl)pyridin-2-yl)amino)phenyl)-N-ethyl-N-methylformimidamide] | ≥ 70% | ≥ 70% | 
29 | CCN(C)C=Nc1cc(C)cc(N(C)c2ccccn2)c1Cl [Compound 107, N′-(2-chloro-5-methyl-3-(methyl(pyridin-2-yl)amino)phenyl)-N-ethyl-N-methylformimidamide] | ≥ 70% |  | 
30 | CCc1cccc(Nc2cc(F)cc(N=CN(C)CC)c2C)n1 [Compound 227, N-ethyl-N′-(3-((6-ethylpyridin-2-yl)amino)-5-fluoro-2-methylphenyl)-N-methylformimidamide] |  | ≥ 70% | 
31 | CCN(C)C=Nc1cc(C)cc(Nc2cc(F)cc(F)c2)c1Cl [Compound 78, N′-(2-chloro-3-((3,5-difluorophenyl)amino)-5-methylphenyl)-N-ethyl-N-methylformimidamide] | ≥ 70% | ≥ 70% | 
32 | CCN(C)C=Nc1cc(Cl)cc(N(C)c2cccc(C(F)(F)F)n2)c1C [Compound 289, N′-(5-chloro-2-methyl-3-(methyl(6-(trifluoromethyl)pyridin-2-yl)amino)phenyl)-N-ethyl-N-methylformimidamide] | ≥ 70% | ≥ 70% | 
33 | CCN(C)C=Nc1cc(C)cc(Nc2cc(Cl)cc(C(F)(F)F)c2)c1Cl [Compound 137, N′-(2-chloro-3-((3-chloro-5-(trifluoromethyl)phenyl)amino)-5-methylphenyl)-N-ethyl-N-methylformimidamide] | ≥ 70% | ≥ 70% | 
34 | CCN(C)C=Nc1cc(C#N)cc(Cc2cccc(C#N)c2)c1C [Compound 309, N′-(5-cyano-3-(3-cyanobenzyl)-2-methylphenyl)-N-ethyl-N-methylformimidamide] | ≥ 70% |  | 
35 | CCN(C)C=Nc1cc(C)cc(Cc2ccccc2C#N)c1Cl [Compound 47, N′-(2-chloro-3-(2-cyanobenzyl)-5-methylphenyl)-N-ethyl-N-methylformimidamide] | ≥ 70% | ≥ 70% | 

From patent US12545639B2, “3-substituted phenylamidine compounds, preparation and use thereof” (PI INDUSTRIES LTD., priority 2019, dated 2026)
